Experimental data: patent US20220030850A1, “CRYOPRESERVATIVE COMPOSITIONS AND METHODS” (REGENTS OF THE UNIVERSITY OF MINNESOTA, priority 2015, published 2022)

How the values were obtained:
mesenchymal stem cells = test: 96-well plate freezing, post-thaw scaled raw recovery (calcein-AM/PI); type: cell-based, human; conditions: 10% DMSO at 1° C./min, control
Text: FIG. 2 and FIG. 3 relate to a three-component TGE solution tested with Jurkat cells. […] These components were selected based on pre-screening experiments performed to identify combinations with high potential recovery. The DE algorithm was programmed to output 27 vector solutions per generation with a weight=0.85 and a crossover=1. Experimental testing and result normalization was similar to the methods described above.
In both screening and DE algorithm experiments, cells were frozen in 96-well plates to limit the number of cells and volumes of reagent necessary, and to increase the number of samples that could be tested at one time. Solutions were made at 2× their final concentration in distilled H2O (diH2O). […]
(§1) After 96 well plates were thawed, calcein-acetoxymethyl (AM)/propidium iodide was added to each well and the wells were covered from light and placed in a 37° C. incubator for 30 minutes to allow the live cells to cleave calcein-AM. The plates were then analyzed for fluorescence on a plate reader. Raw fluorescence values were used to calculate the number of live and dead cells present in each well by correlating to a control curve of unfrozen cells. The live cell recovery was calculated by dividing the number of live cells present in thawed samples (calcein-AM plate reader fluorescence) by the number of live cells seeded pre-freeze (AO/PI counts). […]

Jurkat cells [1] = test: as above; type: cell-based
Method: The first phase of this study involved using the DE algorithm to develop a three-component cryopreservation solution used at a single cooling rate (1° C./min). Three components (trehalose, glycerol, and ectoine (TGE)) were selected as components of the exemplary freezing medium used for preservation of Jurkat cells, a hematopoietic model cell type, based on pre-screening of multiple non-DMSO components. For this single cooling rate study, the DE algorithm was programmed to output 18 vector solutions per generation with a weight=0.85 and a crossover=1. Jurkat cells cryopreserved in 10% DMSO at a cooling rate of 1° C./min were used as a control.
Cooling rate influences cell survival, and the preferred cooling rate for a given application can depend, at least in part, on the composition of the freezing medium and the cell type being frozen. […] To assess both cooling rate and the composition of the solution, the DE algorithm was programmed to output 27 vector solutions per generation with weight=0.85 and a crossover=1. Solutions were separated into categories based on their DE algorithm defined cooling rate, and were frozen in batches at a cooling rate of […], 0.5° C./min, 1° C./min, 3° C./min, 5° C./min, or 10° C./min. Results were normalized and scaled raw recovery is reported, allowing results from all cooling rates and all generations to be compared directly. […]
as §1

[2] = tested on: MSCs (CD73, CD90, CD105, CD45); test: Surface marker characterization by flow cytometry; type: cell-based, human; conditions: frozen MSCs
Text: Cells were suspended to a concentration of 1×10^6 cells/ml in media and stained with a panel of the following antibodies: mouse IgG1 anti-human CD73 (APC-conjugated, BD Biosciences, San Jose, Calif., clone AD2), mouse IgG1 anti-human CD90 (FITC-conjugate, clone 5E10, Molecular Probes, Eugene, Oreg.), mouse IgG1 anti-human CD105 (PE-conjugated, R&D Systems, Inc., Minneapolis, Minn. clone 166707) and mouse IgG1 anti-human CD45 (BV421-conjugated, clone HI30, BD Biosciences, San Jose, Calif.). Cells were incubated with antibodies for 30 minutes at 4° C. Flow cytometry was performed on a flow cytometer (LSR II, BD Biosciences, San Jose, Calif.) at low flow rate with the fine adjust knob five turns from max. At least 15,000 events were recorded for each sample. Cell populations were gated for forward and side scatter compared to unstained MSCs and CD45 expressing Jurkat cells as, respectively, negative and positive controls to establish boundaries for fluorescent signals.

Jurkat cells [3] = test: Raman microscopy cell penetration study of cryoprotectants; type: cell-based; conditions: Raman microscopy, at room temperature and at freezing temperatures
Method: Raman microscopy data provides an indication of the location of action of each cryopreservative. The images in FIG. 12 show Jurkat cells frozen in either glycerol (penetrating) or trehalose (non-penetrating).
These experiments were performed for most of the components described in the sections above both at room temperature and at freezing temperatures to assess whether penetration was temperature dependent.
Confocal Raman Microspectroscopy (CRM) measurements are conducted using Witec Confocal Raman Microscope System Alpha 300R (WITec, Wissenschaftliche Instrumente und Technologie GmbH, Ulm, Germany) with UHTS300 spectrometer and DV401 CCD detector. A wavelength of 532 nm Nd:YAG laser and 10 mW of power is used as excitation source. The laser is transferred to the microscopy in a singer fiber. A 100× air objective (NA 0.90; Nikon Instruments, Melville, N.Y.) is used for focusing the 532 nm excitation laser to the sample. Data collection and analysis are performed by Windows-based WitecControl_1.38 software.

Penetration (Jurkat cells [3])	SMILES	recovery for MSCs (mesenchymal stem cells)	recovery of Jurkat cells (Jurkat cells [1]; 10% DMSO at 1° C./min, control, 96-well)	expression of negative surface marker CD45 [2]	expression of positive surface markers CD73, CD90, CD105 [2]	recovery of Jurkat cells, sugar synergy study (Jurkat cells [1]; 150, 300, 600 mM total sugar, FIG. 8)
–	C[S+](C)[O-] [DMSO, dimethyl sulfoxide]	21%	16%	< 1%	> 99%	–
Yes	OC[C@H]1O[C@@](CO)(O[C@H]2O[C@H](CO)[C@@H](O)[C@H](O)[C@H]2O)[C@@H](O)[C@@H]1O [Sucrose]	–	–	–	–	outperformed monosaccharides
